# Columns and labels:
# [1] = accelerated stability test, thermostatic stove at +55° C., 5 days; assay type: physicochemical
# Method: The product obtained as described in Example 6 (comprising SAMe and phytic acid) and a sample of SAMe inositol hexaphosphate obtained as described in Example 5 are subjected to an accelerated stability test, incubated in a thermostatic stove at +55° C., and the analyses are repeated after 5 days.
# The samples are analysed for the following values:
# SAMe ion content (total of all enantiomers) determined by HPLC and expressed as % by weight enantiomeric purity, determined by HPLC and expressed as % of (SS) isomer active ingredient content, calculated by multiplying the previous two values and expressed as % by weight of (SS)SAMe overall purity, determined by HPLC as SAMe area/total area of chromatogram, expressed as area %. The figure comprises the values of all known degradation impurities.
# [2] = Pharmacokinetic profile in the rat (SAMe blood levels, AUC); assay type: in vivo, Sprague Dawley rats; conditions: by cannula in water, 134 mg/kg and 95 mg/kg, compared with SAMe Pates at equal SAMe ion dose
# Method: 70 Sprague Dawley rats (35 male and 35 female), aged 7-9 weeks and weighing 176-200 g, were acclimatized in a cage for two weeks before the start of the treatment, maintained at +22° C. and 55% relative humidity. The rats were fed on 4RF 21 (Mucedola) feed, and weighed before the beginning and at the end of the test. At the time of treatment, 32 animals per group (16 males and 16 females) were selected from those with the most similar weights, and assigned to the two treatments.
# The product was administered by cannula, dissolved in water, at two dose levels, namely 134 mg/kg and 95 mg/kg. The rats were fasted overnight before administration and for a further two hours after administration. The two equimolar doses guaranteed an equal intake of SAMe ion.
# The blood levels of SAMe were assayed by taking a sample from the tail vein at fixed intervals, at times 0 (pre-administration), 0.5, 1, 1.5, 2, 4, 8 and 24 hours after administration. The blood samples were centrifuged after addition of EDTA to separate the plasma from the cell fraction. The plasma was then analysed by HPLC according to the method reported in Wise, Fullerton J. Liq. Chromatogr. […]
# The SAMe plasma concentration values are also used to determine, according to the Area Under Curve (AUC) calculation, the total quantity of active ingredient absorbed, obtaining the values set out in FIG. 2.
# [3] = stability test, storage at +25° C. in a thermostatic stove up to 6 months; assay type: physicochemical; conditions: FIG. 4
# Method: FIG. 3 depicts SAMe ion content analysis in a product stability test, storing samples at 25° C. in a thermostatic stove up to 6 months. The test measured the SAMe ion content (as percent loss of SAMe ion) in the (SS)SAMe inositol hexaphosphate salt (samples AT1003 and AT1005), the commercial SAMe 1,4-butanedisulphonate salt (sample SD4Test1), the commercial SAMe Pates salt (S1S1057B) and the SAMe-metal-phytate complex obtained according to EP1896489 (sample 04B17DS).
# FIG. 4 further depicts SAMe ion content analysis in a product stability test for diastereomeric purity, storing samples at 25° C. in a thermostatic stove up to 6 months. The test measured the (SS)SAMe diastereoisomer ion content (as percent loss of (SS)SAMe diastereomer) in the (SS)SAMe inositol hexaphosphate salt (samples AT1003 and AT1005), and also in the commercial SAMe 1,4-butanedisulphonate salt (sample SD4Test1), the commercial SAMe Pates salt (S1S1057B) and the SAMe-metal-phytate complex obtained according to EP1896489 (sample 04B17DS).
# Some samples of the products obtained as described in the previous examples are subjected to stability tests, storing them at +25° C., in a thermostatic stove. […]
smiles,measurement,setting,value
"C[S@@+](CC[C@H](N)C(=O)[O-])C[C@H]1O[C@@H](n2cnc3c(N)ncnc32)[C@H](O)[C@@H]1O.O=P(O)(O)O[C@H]1[C@H](OP(=O)(O)O)[C@@H](OP(=O)(O)O)[C@H](OP(=O)(O)O)[C@@H](OP(=O)(O)O)[C@H]1OP(=O)(O)O [AT1003, (SS)-adenosyl methionine with myo-inositol 1,2,3,4,5,6 hexakisphosphate]",content of the active ingredient (SS)SAMe after the stress test,"[1]; 5 days at +55° C., compared with 04B17DS",maintains a higher content
same,degradation by isomerization after the stress test,"[1]; 5 days at +55° C., comparison of AT1003 and 04B17DS",surprisingly lower
same,"(SS) enantiomer (enantiomeric purity, HPLC), final value",[1]; after 5 days at +55° C.,69.56%
same,"SAMe content (SAMe ion, total of all enantiomers, HPLC), final value",[1]; after 5 days at +55° C.,30.6% w/w
same,"Purity (% area), final value","[1]; after 5 days at +55° C., HPLC SAMe area/total area",90.0% area
same,"(SS)SAMe content (active ingredient content), final value","[1]; after 5 days at +55° C., SAMe content x enantiomeric purity, % by weight",21.28%
same,"(SS) enantiomer (enantiomeric purity, HPLC), starting value",[1]; before incubation at +55° C.,77.2%
same,"SAMe content (SAMe ion, total of all enantiomers, HPLC), starting value",[1]; before incubation at +55° C.,34.45% w/w
same,"Purity (% area), starting value","[1]; before incubation at +55° C., HPLC SAMe area/total area",95.98% area
same,"(SS)SAMe content (active ingredient content), starting value","[1]; before incubation at +55° C., SAMe content x enantiomeric purity, % by weight",26.59%
same,plasma concentration of active ingredient (SAMe),[2]; FIG. 1,higher plasma concentration
same,absorption (AUC 8 hours of SAMe plasma concentration),[2]; FIG. 2,better absorption
same,(SS)SAMe isomer content stability (percent loss of (SS)SAMe diastereomer),[3],stable for longer

# Reference: US20190010182A1, “SALT OF (SS)-ADENOSYL METHIONINE WITH INOSITOL HEXAPHOSPHATE, AND PROCESS FOR THE PREPARATION THEREOF” (GNOSIS S.p.A., priority 2017, published 2019)
